Columns and labels:
Assay type in all cases: cell-based
[1] = system: Candida albicans; assay: Minimum Inhibitory Concentration (MIC) against Candida albicans; conditions: Candida albicans strain
[2] = system: Pseudomonas aeruginosa; assay: Minimum Inhibitory Concentration (MIC) against Pseudomonas aeruginosa; conditions: Pseudomonas aeruginosa strain
[3] = system: Escherichia coli; assay: Minimum Inhibitory Concentration (MIC) against Escherichia coli; conditions: Escherichia coli strain
[4] = system: Staphylococcus epidermidis; assay: Minimum Inhibitory Concentration (MIC) against Staphylococcus epidermidis; conditions: Staphylococcus epidermidis strain
[5] = system: Staphylococcus aureus; assay: Minimum Inhibitory Concentration (MIC) against Staphylococcus aureus; conditions: Staphylococcus aureus strain

Compound	MIC Values [1]	MIC Values [2]	MIC Values [3]	MIC Values [4]	MIC Values [5]
C[C@@H]1[C@H](O)[C@@H](C)/C=C/C=C/C=C/C=C/C=C/C=C/C=C/[C@H](O[C@@H]2O[C@H](C)[C@@H](O)[C@H](N)[C@@H]2O)C[C@@H]2O[C@](O)(C[C@@H](O)C[C@@H](O)[C@H](O)CC[C@@H](O)C[C@@H](O)CC(=O)O[C@H]1C)C[C@H](O)[C@H]2C(=O)O [Amphotericin B]	3.15 (b) μg/ml				
Gemtamicin		37 (a) μg/ml	75 (a) μg/ml	150 (a) μg/ml	75 (a) μg/ml

Source: patent US9295706B2, “Phytotherapic pharmaceutical combination of Lippia salviifolia and Lippia sidoides, phytotherapic pharmaceutical composition, process for preparing a phytotherapic pharmaceutical composition and veterinary uses thereof” (priority 2010, dated 2016)
